Bridges are numbered along the chain shown (N, C = ends). [ ]: non-standard residue; d: D form. The star is where a group is joined. DOTA = O=C(O)CN1CCN(CC(=O)O)CCN(CC(=O)*)CCN(CC(=O)O)CC1; Lys(Me3) = C[N+](C)(C)CCCC[C@H](N)C(=O)O; Cit = NC(=O)NCCC[C@H](N)C(=O)O; PEG4 = NCCOCCOCCOCCOCCC(=O)O
How the values were obtained:
[1] = test system: un-transfected HEK293 cells; test: Background binding to un-transfected HEK293 cells (cell microarray suitability); assay type: cell-based, human; settings: biotin-labeled molecules
Experimental: To evaluate potential off-target binding, six biotin-labeled molecules were tested in a cell microarray platform having 6,416 different human proteins spanning diverse functions and subcellular locations.

[2] = in vivo; settings: Sprague Dawley, rat, iv
Experimental: To begin, double jugular vein-cannulated Sprague Dawley rats were dosed with bolus intravenous injections of miniproteins (0.03-0.3 mg/kg) and FITC-sinistrin. Nine blood collection timepoints were taken from 0-2 h, processed to plasma with K2 EDTA, and were frozen for subsequent bioanalysis. Plasma miniprotein concentrations were measured by LC-MS/MS. To control for inter-animal renal clearance differences, and to compare with glomerular filtration rate (GFR), the miniprotein was co-formulated with a molecular marker of GFR, FITC-sinistrin (FS) (Pill et al., 2005). Plasma FITC-sinistrin was measured fluorometrically. All unknown sample measurements were interpolated against known authentic standards spiked into normal rat plasma to calculate concentration. Finally, non-compartmental analysis was performed to estimate plasma pharmacokinetic parameters.

Row | Compound | Background binding to un-transfected HEK293 cells [1] | half-life [2]
1 | CC[C@H](C)[C@@H]1NC(=O)[C@H](Cc2ccc(O)cc2)NC(=O)[C@H](CCC(=O)O)NC(=O)[C@@H]2CSSC[C@@H](C(=O)N[C@@H](CO)C(=O)O)NC(=O)CNC(=O)[C@H](CC(C)C)NC(=O)[C@H](CC(N)=O)NC(=O)[C@H](CC(=O)O)NC(=O)[C@H](CC(C)C)NC(=O)[C@H]([C@@H](C)CC)NC(=O)[C@H](CCC(=O)O)NC(=O)[C@H](CCC(=O)O)NC(=O)[C@H]([C@@H](C)CC)NC(=O)[C@H](CSSC[C@H](NC(=O)CCOCCOCCOCCOCCNC(=O)CCCC[C@@H]3SC[C@@H]4NC(=O)N[C@@H]43)C(=O)N[C@@H](CC(=O)O)C(=O)N[C@@H](Cc3ccc(O)cc3)C(=O)N[C@@H](CC(=O)O)C(=O)N[C@@H](CCC(=O)O)C(=O)N[C@@H](CCC(N)=O)C(=O)N[C@@H](Cc3ccccc3)C(=O)N[C@@H](Cc3ccccc3)C(=O)N[C@@H]([C@@H](C)O)C(=O)N[C@@H](C)C(=O)N[C@@H](CC(C)C)C(=O)N[C@@H](CCCCN)C(=O)N[C@@H](CCCNC(=N)N)C(=O)N[C@@H](CC(C)C)C(=O)N[C@@H](CCCNC(=N)N)C(=O)NCC(=O)NCC(=O)N[C@@H](CC(=O)O)C(=O)N[C@@H]([C@@H](C)CC)C(=O)N2)NC(=O)[C@H](CC(C)C)NC(=O)CNC(=O)[C@@H]2CCCN2C(=O)[C@H](CC(C)C)NC(=O)[C@H](Cc2ccc(O)cc2)NC(=O)[C@H](CCC(N)=O)NC(=O)[C@H](Cc2ccccc2)NC(=O)[C@H](CO)NC(=O)[C@H](C)NC(=O)[C@H](CCC(N)=O)NC1=O [Compound C190] | low-background binding | –
2 | CC[C@H](C)[C@@H]1NC(=O)[C@H](Cc2ccc(O)cc2)NC(=O)[C@H](CC(=O)O)NC(=O)[C@@H]2CSSC[C@@H](C(=O)N[C@@H](CO)C(=O)O)NC(=O)CNC(=O)[C@H](CC(C)C)NC(=O)[C@H](CC(N)=O)NC(=O)[C@H](CC(=O)O)NC(=O)[C@H](CC(C)C)NC(=O)[C@H]([C@@H](C)CC)NC(=O)[C@H](CCC(=O)O)NC(=O)[C@H](CCC(=O)O)NC(=O)[C@H]([C@@H](C)CC)NC(=O)[C@H](CSSC[C@H](NC(=O)CCOCCOCCOCCOCCNC(=O)CCCC[C@@H]3SC[C@@H]4NC(=O)N[C@@H]43)C(=O)N[C@@H](CCC(=O)O)C(=O)N[C@@H](Cc3ccc(O)cc3)C(=O)N[C@@H](CC(=O)O)C(=O)N[C@@H](CCC(=O)O)C(=O)N[C@@H](CCC(N)=O)C(=O)N[C@@H](Cc3ccccc3)C(=O)N[C@@H](Cc3ccccc3)C(=O)N[C@@H]([C@@H](C)O)C(=O)N[C@@H](C)C(=O)N[C@@H](CC(C)C)C(=O)N[C@@H](CCCCN)C(=O)N[C@@H](CCCNC(=N)N)C(=O)N[C@@H](CC(C)C)C(=O)N[C@@H](CCCNC(=N)N)C(=O)NCC(=O)N[C@@H](CC(=O)O)C(=O)N[C@@H](CC(=O)O)C(=O)N[C@@H]([C@@H](C)CC)C(=O)N2)NC(=O)[C@H](CC(C)C)NC(=O)CNC(=O)[C@@H]2CCCN2C(=O)[C@H](CC(C)C)NC(=O)[C@H](Cc2ccc(O)cc2)NC(=O)[C@H](CCC(N)=O)NC(=O)[C@H](Cc2ccccc2)NC(=O)[C@H](CO)NC(=O)[C@H](C)NC(=O)[C@H](CCC(N)=O)NC1=O [Compound C197] | low-background binding | –
3 | CC[C@H](C)[C@@H]1NC(=O)[C@H](Cc2ccc(O)cc2)NC(=O)[C@H](CCC(=O)O)NC(=O)[C@@H]2CSSC[C@@H](C(=O)N[C@@H](CO)C(=O)O)NC(=O)CNC(=O)[C@H](CC(C)C)NC(=O)[C@H](CC(N)=O)NC(=O)[C@H](CC(=O)O)NC(=O)[C@H](CC(C)C)NC(=O)[C@H]([C@@H](C)CC)NC(=O)[C@H](CCC(=O)O)NC(=O)[C@H](CCC(=O)O)NC(=O)[C@H]([C@@H](C)CC)NC(=O)[C@H](CSSC[C@H](NC(=O)CCOCCOCCOCCOCCNC(=O)CCCC[C@@H]3SC[C@@H]4NC(=O)N[C@@H]43)C(=O)N[C@@H](CC(=O)O)C(=O)N[C@@H](Cc3ccc(O)cc3)C(=O)N[C@@H](CC(=O)O)C(=O)N[C@@H](CCC(=O)O)C(=O)N[C@@H](CCC(N)=O)C(=O)N[C@@H](Cc3ccccc3)C(=O)N[C@@H](Cc3ccccc3)C(=O)N[C@@H]([C@@H](C)O)C(=O)N[C@@H](C)C(=O)N[C@@H](CC(C)C)C(=O)N[C@@H](CCCCN)C(=O)N[C@@H](CCCNC(=N)N)C(=O)N[C@@H](CC(C)C)C(=O)N[C@@H](CCCNC(=N)N)C(=O)NCC(=O)N[C@@H](C)C(=O)N[C@@H](CC(=O)O)C(=O)N[C@@H]([C@@H](C)CC)C(=O)N2)NC(=O)[C@H](CCC(=O)O)NC(=O)CNC(=O)[C@@H]2CCCN2C(=O)[C@H](CC(C)C)NC(=O)[C@H](Cc2ccc(O)cc2)NC(=O)[C@H](CCC(N)=O)NC(=O)[C@H](Cc2ccccc2)NC(=O)[C@H](CO)NC(=O)[C@H](C)NC(=O)[C@H](CCC(N)=O)NC1=O [Compound C208] | low-background binding | –
4 | CC[C@H](C)[C@@H]1NC(=O)[C@H](Cc2ccc(O)cc2)NC(=O)[C@H](CCC(=O)O)NC(=O)[C@@H]2CSSC[C@@H](C(=O)N[C@@H](CO)C(=O)O)NC(=O)CNC(=O)[C@H](CC(C)C)NC(=O)[C@H](CC(N)=O)NC(=O)[C@H](CC(=O)O)NC(=O)[C@H](CC(C)C)NC(=O)[C@H]([C@@H](C)CC)NC(=O)[C@H](CCC(=O)O)NC(=O)[C@H](CCC(=O)O)NC(=O)[C@H]([C@@H](C)CC)NC(=O)[C@H](CSSC[C@H](NC(=O)CCOCCOCCOCCOCCNC(=O)CN3CCN(CC(=O)O)CCN(CC(=O)O)CCN(CC(=O)O)CC3)C(=O)N[C@@H](CC(=O)O)C(=O)N[C@@H](Cc3ccc(O)cc3)C(=O)N[C@@H](CC(=O)O)C(=O)N[C@@H](CCC(=O)O)C(=O)N[C@@H](CCC(N)=O)C(=O)N[C@@H](Cc3ccccc3)C(=O)N[C@@H](Cc3ccccc3)C(=O)N[C@@H]([C@@H](C)O)C(=O)N[C@@H](C)C(=O)N[C@@H](CC(C)C)C(=O)N[C@@H](C)C(=O)N[C@@H](CCCNC(=N)N)C(=O)N[C@@H](CC(C)C)C(=O)N[C@@H](CCCNC(=N)N)C(=O)NCC(=O)N[C@@H](C)C(=O)N[C@@H](CC(=O)O)C(=O)N[C@@H]([C@@H](C)CC)C(=O)N2)NC(=O)[C@H](CCC(=O)O)NC(=O)CNC(=O)[C@@H]2CCCN2C(=O)[C@H](CC(C)C)NC(=O)[C@H](Cc2ccc(O)cc2)NC(=O)[C@H](CCC(N)=O)NC(=O)[C@H](Cc2ccccc2)NC(=O)[C@H](CO)NC(=O)[C@H](C)NC(=O)[C@H](CCC(N)=O)NC1=O [Compound C246] | – | 38 min
5 | CC[C@H](C)[C@@H]1NC(=O)[C@H](Cc2ccc(O)cc2)NC(=O)[C@H](CCC(=O)O)NC(=O)[C@@H]2CSSC[C@@H](C(=O)N[C@@H](CO)C(=O)O)NC(=O)CNC(=O)[C@H](CC(C)C)NC(=O)[C@H](CC(N)=O)NC(=O)[C@H](CC(=O)O)NC(=O)[C@H](CC(C)C)NC(=O)[C@H]([C@@H](C)CC)NC(=O)[C@H](CCC(=O)O)NC(=O)[C@H](CCC(=O)O)NC(=O)[C@H]([C@@H](C)CC)NC(=O)[C@H](CSSC[C@H](NC(=O)CCOCCOCCOCCOCCNC(=O)CN3CCN(CC(=O)O)CCN(CC(=O)O)CCN(CC(=O)O)CC3)C(=O)N[C@@H](CC(=O)O)C(=O)N[C@@H](Cc3ccc(O)cc3)C(=O)N[C@@H](CC(=O)O)C(=O)N[C@@H](CCC(=O)O)C(=O)N[C@@H](CCC(N)=O)C(=O)N[C@@H](Cc3ccccc3)C(=O)N[C@@H](Cc3ccccc3)C(=O)N[C@@H]([C@@H](C)O)C(=O)N[C@@H](C)C(=O)N[C@@H](CC(C)C)C(=O)N[C@@H](CCCCN)C(=O)N[C@@H](CCCNC(=N)N)C(=O)N[C@@H](CC(C)C)C(=O)N[C@@H](CCCNC(=N)N)C(=O)NCC(=O)N[C@@H](C)C(=O)N[C@@H](CC(=O)O)C(=O)N[C@@H]([C@@H](C)CC)C(=O)N2)NC(=O)[C@H](CCC(=O)O)NC(=O)CNC(=O)[C@@H]2CCCN2C(=O)[C@H](CC(C)C)NC(=O)[C@H](Cc2ccc(O)cc2)NC(=O)[C@H](CCC(N)=O)NC(=O)[C@H](Cc2ccccc2)NC(=O)[C@H](CO)NC(=O)[C@H](C)NC(=O)[C@H](CCC(N)=O)NC1=O [Compound C270] | – | 28.3 min
6 | {DOTA-PEG4}-CDYDEQFFTALA[Cit]LRGGDICEYIQA[Lys(Me3)]FQYLPGLCIEEILDNLGCS-OH (disulfide 1-34, 20-44 (inferred)) [Compound C261] | – | 28.7 min
7 | {DOTA-PEG4}-CEYDEEFFTALARLRGGDICQYIQAKFQYLPGQCIEEILDNLGCS-OH (disulfide 1-34, 20-44) [Compound C242] | – | 29.7 min
8 | {DOTA-PEG4}-CEYDEEFFTALKRLRGGDICYYIQAKFQYLPKLCIEEILDNLGCS-OH (disulfide 1-34, 20-44) [Compound C118] | – | 19.7 min
9 | {DOTA-PEG4}-CEYDEQFFTALARLRGGDICEYIQAKFQYLPGLCIEEILDNLGCS-OH (disulfide 1-34, 20-44) [Compound C219] | – | 25.4 min
10 | {DOTA-PEG4}-CEYDEQFFTALKALRGGDICYYIQASFNYLPDLCIEEILDNLGCS-OH (disulfide 1-34, 20-44 (inferred)) [Compound C114] | – | 25.5 min
